What was measured:
[1] = Viscosity of formulation; format: physicochemical; settings: cosmetic emulsion of Example 1 with other glycol instead of Bio-PDO
[2] = test system: human skin; assay: Second human skin patch test; format: in vivo
From the text: (§1) Based on these studies PDO is not expected to be a skin irritant or sensitizer in humans.

[3] = test system: human skin; assay: Human skin patch test (first); format: in vivo; settings: approximately 100 subjects; 5, 25, and 50% PDO
From the text: as §1

| viscosity of the cosmetic emulsion with the comparison glycol [1] | Compound | patch test irritation and cumulative irritation for human skin ([2]; 25, 50, and 75% (pH 7)) | skin reactions indicative of irritation or sensitization [3] | clinically significant dermal irritation or sensitization reactions ([2]; 25, 50, and 75% PDO at pH 7, or 75% PDO at pH 4 and 9) |
| --- | --- | --- | --- | --- |
| 12600 cps | CC(O)CO (stereo not drawn) [propylene glycol] | patch test irritants and cumulative irritants |  |  |
|  | OCCCO [Bio-PDO, 1,3-propanediol] |  | did not cause any skin reactions indicative of irritation or sensitization | did not produce any clinically significant dermal irritation or sensitization reactions |
| 9600 cps | CC(CO)CO [2-methyl-1,3-propanediol] |  |  |  |

| Compound | viscosity of the cosmetic emulsion with the comparison glycol [1] | patch test irritation and cumulative irritation for human skin ([2]; 25, 50, and 75% (pH 7)) | skin reactions indicative of irritation or sensitization [3] | clinically significant dermal irritation or sensitization reactions ([2]; 25, 50, and 75% PDO at pH 7, or 75% PDO at pH 4 and 9) |
| --- | --- | --- | --- | --- |
| CC(O)CCO (stereo not drawn) [1,3-butylene glycol] | 6000 cps |  |  |  |

Reference: patent US20130071535A1, “FOOD AND FLAVORANT COMPOSITIONS COMPRISING RENEWABLY-BASED, BIODEGRADABLE 1,3-PROPANEDIOL” (DuPont Tate & Lyle Bio Products Company, LLC, priority 2006, published 2013)
